# According to the supplement of paper PMC10307832:
# How the values were obtained:
# Experiment in all cases: relative viability (nuclei count vs DMSO), 5 days (fraction); higher = more cells survive
# [1] = compound: O=c1[nH]cc(F)c(=O)[nH]1 [5-Fluorouracil] + Cc1cc(Nc2cc(N3CCN(C)CC3)nc(Sc3ccc(NC(=O)C4CC4)cc3)n2)n[nH]1 [Tozasertib] (partner 0.1 µM)
# How it was run: (§1)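 Relative viability was taken as the ratio of nuclei in treated wells to nuclei in vehicle wells. Lung cancer cell lines in 1536-well plates received compounds by pin tool one day after seeding, either one drug alone or a fixed anchor-drug dose plus five library-drug doses (not always all listed) in √10 steps. Nuclei were counted on 4× images after 5 days of treatment, and values are medians of duplicate plates.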
# Sulindac + Linsitinib = compound: CC1=C(CC(=O)O)c2cc(F)ccc2/C1=C\c1ccc([S+](C)[O-])cc1 [Sulindac] + C[C@]1(O)C[C@@H](c2nc(-c3ccc4ccc(-c5ccccc5)nc4c3)c3c(N)nccn32)C1 [Linsitinib] (partner 1 µM)
# How it was run: as §1
# [2] = compound: O=c1[nH]cc(F)c(=O)[nH]1 [5-Fluorouracil] + C[C@]1(O)C[C@@H](c2nc(-c3ccc4ccc(-c5ccccc5)nc4c3)c3c(N)nccn32)C1 [Linsitinib] (partner 1 µM)
# How it was run: as §1
# Sulindac + Foretinib = compound: CC1=C(CC(=O)O)c2cc(F)ccc2/C1=C\c1ccc([S+](C)[O-])cc1 [Sulindac] + COc1cc2c(Oc3ccc(NC(=O)C4(C(=O)Nc5ccc(F)cc5)CC4)cc3F)ccnc2cc1OCCCN1CCOCC1 [Foretinib] (partner 0.25 µM)
# How it was run: as §1
Cell Line,relative viability ([1]; first compound 0.02 µM),relative viability ([1]; first compound 0.2 µM),relative viability ([1]; first compound 0.6325 µM),relative viability ([1]; first compound 2 µM),relative viability (Sulindac + Linsitinib; first compound 0.08 µM),relative viability (Sulindac + Linsitinib; first compound 0.253 µM),relative viability (Sulindac + Linsitinib; first compound 0.8 µM),relative viability (Sulindac + Linsitinib; first compound 2.53 µM),relative viability (Sulindac + Linsitinib; first compound 8 µM),relative viability ([2]; first compound 0.02 µM),relative viability ([2]; first compound 0.2 µM),relative viability ([2]; first compound 0.6325 µM),relative viability ([2]; first compound 2 µM),relative viability (Sulindac + Foretinib; first compound 0.08 µM),relative viability (Sulindac + Foretinib; first compound 0.253 µM),relative viability (Sulindac + Foretinib; first compound 0.8 µM),relative viability (Sulindac + Foretinib; first compound 2.53 µM),relative viability (Sulindac + Foretinib; first compound 8 µM)
NCI-H1944,0.253,0.256,0.218,0.153,1.19,1.14,1,1.24,1.34,1.13,1.19,0.497,0.27,0.962,0.874,0.822,0.974,1.03
NCI-H1975,0.847,0.707,0.386,0.201,1.14,1.03,–,1.07,1.05,0.902,1.02,0.489,0.308,1.12,1.01,1.05,0.993,1.05
NCI-H1993,0.556,0.61,0.585,0.554,0.741,0.674,0.789,0.735,0.82,0.8,0.714,0.713,0.608,0.728,0.724,0.751,0.761,0.752
NCI-H2009,0.802,0.793,0.684,0.474,1.22,1.3,1.05,1.13,1.23,1.16,1.15,0.934,0.735,1.32,1.26,1.26,1.22,1.12
NCI-H2023,0.441,0.146,0.112,0.0913,0.808,0.725,0.43,0.712,0.757,0.45,0.242,0.131,0.0929,0.969,0.867,0.715,0.821,1.07
NCI-H2085,0.867,0.784,0.828,0.608,0.894,0.856,0.876,0.848,0.912,0.894,0.963,0.932,0.587,0.763,0.987,0.882,0.914,1.08
NCI-H2087,0.282,0.236,0.253,0.156,1.01,1.13,0.938,0.964,1.17,0.91,0.865,0.657,–,1.44,1.1,–,1.22,1.29
NCI-H2126,0.634,0.392,0.316,0.281,0.608,0.713,0.661,0.726,0.728,0.64,0.378,0.341,0.285,1.2,1.18,1.06,1.01,1.14
NCI-H2228,0.293,0.25,0.24,0.187,0.704,0.659,0.765,0.701,1.2,0.443,0.627,0.48,0.36,1.02,1.07,0.773,0.751,0.899
